From patent publication US8883203B2, “Solid oral dosage form containing an enhancer” (Merrion Research III Limited, priority 2006, dated 2014)

Experiments:
Caco-2 monolayers = assay: TEER of Caco-2 monolayers with MCFA sodium salts; format: cell-based; settings: sodium salts with 3H-TRH, over 2 hours, concentrations of Table 1
Experimental: Cell Culture: Caco-2 cells were cultured in Dulbecco's Modified Eagles Medium (DMEM) 4.5 g/L glucose supplemented with 1% (v/v) non-essential amino acids; 10% fetal calf serum and 1% penicillin/streptomycin. […] The cells were grown and expanded in standard tissue culture flasks and were passaged once they attained 100% confluence. The Caco-2 cells were then seeded on polycarbonate filter inserts (Costar; 12 mm diameter, 0.4 μm pore size) at a density of 5×10^5 cells/cm^2 and incubated in six well culture plates with a medium change every second day. Confluent monolayers between day 20 and day 30 seeding on filters and at passages 30-40 were used throughout these studies.
The transport experiments were performed in Hank's Balanced Salt Solution (HBSS) containing 25 mM N[2-hydroxyethyl]-piperazine-N′-[2-ethanesulfonic acid] (HEPES) buffer, pH 7.4 at 37° C. Due to variations in solubilities, various concentrations of the different MCFA sodium salts and various apical buffers were used as shown in Table 1. In all cases the basolateral chamber contained regular HBSS+HEPES.
After removing the cell culture medium, the monolayers were placed in wells containing prewarmed HBSS (37° C.); 1 ml apically and 2 ml basolaterally. Monolayers were incubated at 37° C. for 30 mins. Then at time zero, apical HBSS was replaced with the relevant apical test solution containing the radiolabelled compounds with and without the enhancer compound. […] The plates were placed on an orbital shaker in an incubator (37° C.). Transport across the monolayers was followed by basolateral sampling (1 ml) at 30 min. intervals up to 120 mins. At each 30 min. interval each insert was transferred to a new well containing 2 ml fresh prewarmed HBSS. Apical stock radioactivity was determined by taking 10 μl samples at t=0 and t=120 mins. […] Mean values for ^3H-TRH concentrations were calculated for the apical and basolateral solutions at each time point.

[1] = Closed loop rat model, intraduodenal TRH with enhancer, serum TRH; format: in vivo, Male Wistar rats; settings: 500 μg or 1000 μg TRH with 35 mg enhancer, interduodenal bolus
Experimental: Male Wistar rats (weight range 250 g-350 g) were anaesthetized with ketamine hydrochloride/acepromazine. […] All intraduodenal dose volumes (for samples and control) were 1 ml/kg. The proximal end of the segment was ligated and the loop was sprayed with isotonic saline (37° C.) to provide moisture and then replaced in the abdominal cavity avoiding distension. The incision was closed with surgical clips. A group of animals were administered TRH in PBS (100 μg in 0.2 ml) by subcutaneous injection as a reference.

APTT = assay: Closed-loop rat segment, intraileal USP heparin with enhancer, APTT response; format: in vivo; settings: USP heparin 1000 IU, enhancer 10 and 35 mg
Text: APTT measurements were taken at various time points.

anti-factor Xa activity [2] = assay: Closed-loop rat segment, intraileal USP heparin with enhancer, anti-factor Xa response; settings: USP heparin 1000 IU
Experimental: The procedure carried out in Example 1(a) above was repeated using USP heparin in place of TRH and dosing intraileally rather than intraduodenally. A mid-line incision was made in the abdomen and the distal end of the ileum located (about 10 cm proximal to the ileo-caecal junction). 7-9 cm of tissue was isolated and the distal end ligated, taking care to avoid damage to surrounding blood vessels. Heparin absorption as indicated by […] (APTT) response was measured by placing a drop of whole blood (freshly sampled from the tail artery) on the test cartridge of Biotrack 512 coagulation monitor. APTT measurements were taken at various time points.
Citrated blood samples were centrifuged at 3000 rpm for 15 mins. to obtain plasma for anti-factor Xa analysis. […] The control in each case is a solution of the same heparin concentration containing no enhancer.

[3] = cited from earlier work
anti-factor Xa activity [4] = assay: Site of administration of LMWH with sodium caprate in dogs, anti-factor Xa; format: in vivo, beagle dogs; settings: 45,000 IU LMWH and 0.55 g sodium caprate, oral, intrajejunal, intracolonic
Text: Four beagle dogs (10-15 Kg) were surgically fitted with catheters to the jejunum and colon respectively. […] 3,200 IU Fluxum™ SC was included in the study as a subcutaneous reference.

anti-factor Xa activity [5] = assay: Intraduodenal LMWH with enhancers in rats (open loop), anti-factor Xa; format: in vivo, Male Wistar rats; settings: 1000 IU parnaparin sodium intraduodenally

## CCCCCCCCCCCC(=O)[O-].[Na+] [Batch C12, sodium laurate]
Caco-2 monolayers
  effect on TEER (Ωcm^2) compared to the control: some cell damage (reduction in TEER)

## CCCCCCCCCCCCCC(=O)[O-].[Na+] [Batch C14]
Caco-2 monolayers
  effect on TEER (Ωcm^2) compared to the control: minimal reduction in TEER

## CCCCCCCCCCCCCCCCCC(=O)[O-].[Na+] [Batch C18]
Caco-2 monolayers
  effect on TEER (Ωcm^2) compared to the control: minimal reduction in TEER

## CCCCCCCC(=O)[O-].[Na+] [NaC8, sodium caprylate]
[1]
  serum levels of TRH over the control TRH solution: significantly increases

## CCCCCCCCCC(=O)[O-].[Na+] [NaC10, sodium caprate]
[1]
  serum levels of TRH over the control TRH solution: significantly increases
Caco-2 monolayers
  effect on TEER (Ωcm^2) compared to the control: minimal reduction in TEER
APTT
  heparin absorption by APTT response compared to control heparin solution: significant increase in absorption
anti-factor Xa activity [2]; enhancer 10 mg
  anti-factor Xa activity relative to control heparin solution: significant increase in anti-factor Xa activity
anti-factor Xa activity [2]; enhancer 35 mg
  anti-factor Xa activity relative to control heparin solution: significant increase in anti-factor Xa activity

## NCCCC(O)(P(=O)(O)O)P(=O)(O)O [alendronate, Alendronate monosodium trihydrate]
[3]; over the next 64 hours
  further share of the dose absorbed excreted in the urine: 5%
[3]; within 8 hours, oral conventional forms
  share of the dose absorbed excreted in the urine: 40%

## parnaparin sodium [LMWH]
anti-factor Xa activity [4]
  intestinal absorption of LMWH versus absorption from the stomach: considerably higher
anti-factor Xa activity [5]
  systemic delivery of LMWH in the absence of enhancer: relatively poor
